# Measured values: patent publication US11207321B2, “Methods and medical uses” (Institute of Cancer Research: Royal Cancer Hospital (The), priority 2017, dated 2021)
# System: palbociclib-resistant breast cancer cell lines (wild type and LTED)
# Assay: Proliferation assays with MPS1 inhibitors in panel of palbociclib-resistant breast cancer cell lines
# Type: cell-based
# Conditions: addition of CCT289346 to palbociclib
# Procedure: Wt cells were stripped of E2 for 72 hrs prior to experiment. After 24 hrs cells were treated with escalating doses of MPS1 inhibitors±palbocliclib. Media was replaced after 3 days and cell viability was assessed after 6 days using the CellTitre-Glo® Luminescent Cell Viability Assay (Promega) according to manufacturer's instructions.
compound,measurement,value
"CCOc1cc(-c2nncn2C)ccc1Nc1ncc2cc(C)nc(NCC(C)(C)C)c2n1 [CCT289346, N2-(2-ethoxy-4-(4-methyl-4H-1,2,4-triazol-3-yl)phenyl)-6-methyl-N8-neopentylpyrido[3,4-d]pyrimidine-2,8-diamine]",effect of combination with palbociclib,synergistic/additive effect
